{
  "source": "patent US12065468B2",
  "about": "“Heme-binding small peptide” (priority 2021, dated 2024)",
  "key": {"[1]": {"test": "Peroxidase assay of heme on TMB", "assay_type": "biochemical", "conditions": "5 μM NCR247 + 5 μM heme", "description": "Peroxidase assay: Pierce TMB Substrate Kit was used to measure the peroxidase activity of the heme and equimolar NCR247 was added to heme according to the manufacturer's instructions. In short, 100 μL of TMB substrate solution (1:1 of TMB substrate and Peroxide solution) was added to 96 well black, polystyrene flat bottomed, non-treated, sterile plates. 5 μM heme or 5 μM NCR247+5 μM heme was added to the wells and the progression of the reaction was measured in a Tecan Spark™ plate reader. UV-Vis absorption values at 370 nm and 652 nm are noted every minute over a time period of 16 mins."}, "[2]": {"test_system": "Human red blood cells (hRBC)", "test": "Haemolysis assay", "assay_type": "cell-based", "conditions": "1.5 h at 37° C., 4% hRBC; listed as L-NCR247", "description": "Haemolysis assay: Standard methods of hemolysis assay as previously published was followed^96. Human red blood cells (hRBC) were washed three times with phosphate-buffered saline (PBS: 10 mM Na2HPO4, 1.76 mM K2HPO4, pH 7.4, containing […], and 2.7 mM KCl). Two-fold serial dilutions of the peptide solutions were then added to 50 μl aliquots of hRBC in PBS to adjust a final volume to 100 μl and hRBC concentration to 4% (v/v) in each well of a 96-well plate. The suspension was incubated for 1.5 h at 37° C. under stirring at 1000 rpm. The plates were centrifuged at 2000 g for 5 min. Supernatant aliquots of 50 μl were transferred into flat-bottomed 96-well microplates, and the release of hemoglobin was monitored by measuring the absorbance at 405 nm in a microplate reader. hRBC in PBS (0% lysis control) and 0.1% Triton X-100 (100% lysis control) were used as negative and positive controls, respectively. Hemolytic activity was expressed as a percentage of hemolysis calculated according to the following equation: Hemolysis (%)=(OD405nm sample—OD405nm 0% lysis control)/(OD405nm 100% lysis control−OD405nm 0% lysis control)*100."}, "[3]": {"test_system": "HEK-293", "test": "Cytotoxic activity assay (MTT)", "assay_type": "cell-based, Human", "conditions": "100 μM, 24 h, listed as L-NCR247", "description": "Cytotoxic activity assay: Human embryonic kidney (HEK-293-ATCC-CRL-1573) cell lines were cultured in Dulbecco's Modified Eagle Medium (DMEM) supplemented with 10% Fetal Bovine Serum (FBS). When cells reached 10^4-10^5 cells per well, cells were supplemented with fresh DMEM without FBS, and then treated with 100 μM of NCR247 (L and D). After treatment for 24 h, MTT (Abeam, United Kingdom) stock solution was added to each well at a final concentration of 500 μg/mL and incubated in the dark for 4 h at 37° C. The absorbance at 570 nm was measured in the Tecan plate reader."}, "[4]": {"test_system": "Sinorhizobium meliloti", "test": "S. meliloti growth curve", "assay_type": "cell-based", "conditions": "increasing amounts of peptide; minimal medium", "description": "Growth curve: All growth curve experiments were performed in a Tecan SPARK 10M microplate reader using polystyrene flat bottomed, non-treated, sterile 96 well plates. Overnight cultures grown in LBMC were washed and were subcultured (1:100 dilution) in minimal medium supplemented with respective iron concentrations. The plates were programed to continuously shake at 150 rpm and temperature maintained at 30° C. Optical density was measured at 600 nm every 60 minutes."}, "[5]": {"test_system": "Caenorhabditis elegans", "test": "C. elegans growth", "conditions": "in vivo", "description": "When grown in the lab, the widely-studied model nematode Caenorhabditis elegans normally acquires heme by ingesting bacteria and breaking them down to release heme. […] A new class of heme importer was identified in C. elegans by analyzing heme-responsive proteins and orthologs have been subsequently identified in other parasites such as the kinetoplastid parasite discussed above."}, "[6]": {"test_system": "S. meliloti", "test": "Cell cycle progression by flow cytometry on synchronized cultures", "assay_type": "cell-based, Sinorhizobium meliloti", "conditions": "synchronized culture, 4 uM; listed as L-NCR247", "description": "FIG. 14. […] Cell cycle progression analysis using flow cytometry on synchronized cultures of Wild type S. meliloti and bacA mutant of S. meliloti treated with L or D-NCR247 when compared to untreated cells. Dark grey represents percentage of cells with 1 copy of genome and light grey represents percentage of cells with 2 copies of genomes. […] Data are presented as average of three biological replicates.\nSince NCR247 treatment leads to gene expression change in several genes of the CtrA regulon, we investigated the CtrA regulon and the cell division inhibition role of NCR247. […] In addition, this phenotype is retained in a peptide transporter bacA mutant indicating cell division inhibition happens due to protein-peptide interaction outside the cytoplasm."}, "[7]": {"test_system": "Sinorhizobium meliloti", "test": "S. meliloti cell death in 24 hours (plating)", "assay_type": "cell-based"}, "[8]": {"test_system": "Toxoplasma gondii", "test": "T. gondii plaque assay on human foreskin fibroblasts", "assay_type": "cell-based", "conditions": "6 hr. pre-treatment of parasites", "description": "Parasite and host cell culture: T. gondii parasites (strain RH, ATCC 50838) were grown in human foreskin fibroblasts (HFFs) maintained in DMEM (GIBCO) supplemented with 3% inactivated fetal calf serum (IFS) and 10 μg/mL gentamicin (Thermo Fisher Scientific), referred to as D3. Where noted, DMEM supplemented with 10% IFS and 10 μg/mL gentamicin was used, referred to as D10.\nPlaque Assays: Freshly lysed parasites were filtered through 5 μm filters and spun down at 1000×g and 18° C. for 10 min. Parasites were resuspended to 6E6 parasites/mL in Fluorobrite™ media supplemented with 3% IFS. Parasites were incubated with either peptide or vehicle for 6 hours at 37° C. and 5% CO2. Parasites were then spun down, washed once in 2 mL of Fluorobrite™ supplemented with 3% IFS, and resuspended in 1 mL of media. 2000 parasites were inoculated into each well of 6-well plates of HFFs maintained in D10 and allowed to grow undisturbed for 9 days. Plates were washed with PBS and fixed for 10 min at room temperature with 100% ethanol. Monolayers were visualized by staining for 5 min at room temperature with crystal violet solution, followed by two washes with PBS, one wash with water, and drying overnight."}},
  "note": "Entries after “also recorded” stand apart in the source; their conditions may differ.",
  "data": [
    {"sequence": "RNGCIVDPRCPYQQCRRPLYCRRR [NCR247]", "values": [
      {"measurement": "peroxidase activity of heme", "setting": "[1]", "result": "intrinsic peroxidase activity of heme is quenched"},
      {"measurement": "haemolytic activity", "setting": "[2]", "result": "did not detect haemolytic activities; also recorded: negligible hemolysis"},
      {"measurement": "cytotoxicity", "setting": "[3]", "result": "negligible cytotoxicity; also recorded: negligible hemolysis"},
      {"measurement": "inhibition of growth of S. meliloti (bacteriostatic effect)", "setting": "[4]", "result": "reduction in growth rate; also recorded: inhibits the growth of Sinorhizobium meliloti"},
      {"measurement": "growth of C. elegans", "setting": "[5]", "result": "can block the growth; also recorded: blocks growth of the nematode C. elegans, arresting them in the L1 stage"},
      {"measurement": "cell division inhibition", "setting": "[6]", "result": "leads to cell division inhibition; also recorded: more percentage of cells having 2 copies of genome"},
      {"measurement": "Cell death in 24 hours", "setting": "[7]; 6 uM peptide", "result": "10000 fold decrease in fold decrease in cell number"},
      {"measurement": "reduction in number of S. meliloti cells (bactericidal effect)", "setting": "[7]; incubated 24 hours, plated in non-selective medium", "result": "causes a reduction in the number of S. meliloti cells"},
      {"measurement": "capacity of T. gondii to form plaques", "setting": "[8]", "result": "massive reduction in the capacity of the parasite to form plaques"}
    ]}
  ]
}
